How the values were obtained:
39 kinases (Table 4) = assay: Global specificity profiling experiment, single point inhibition on kinase microarray; type: biochemical; settings: substrates histone, casein, MBP, polyEY, control 2% DMSO
Protocol: (§1) The wash solution is then discarded.
To assess the application of microarray assays for compound profiling, seven known inhibitors (see Table of inhibitors used in global specificity profiling experiment) and one control (2% DMSO) were tested on microarrays deposited with a group of kinases (as well as positive and negative controls). The method of Example I was used. Twelve spots of each kinase or control were deposited on each array, and three arrays were used for each inhibitor. A mixture of generic kinase substrates (histone, casein, MBP, and polyEY) was used in the assay. The average of all signals from the same inhibitor or control experiment was calculated.
. The general specificities observed were consistent with the known general specificities for these inhibitors, which are listed in Table 3.

PRKCD = PRKCD (Homo sapiens, UniProt Q05655); assay: Dose-response analysis on 10-well kinase microarray; type: biochemical; settings: different inhibitor concentration in each well; substrate MBP, histone and casein
Chain of PRKCD (Q05655 whole entry): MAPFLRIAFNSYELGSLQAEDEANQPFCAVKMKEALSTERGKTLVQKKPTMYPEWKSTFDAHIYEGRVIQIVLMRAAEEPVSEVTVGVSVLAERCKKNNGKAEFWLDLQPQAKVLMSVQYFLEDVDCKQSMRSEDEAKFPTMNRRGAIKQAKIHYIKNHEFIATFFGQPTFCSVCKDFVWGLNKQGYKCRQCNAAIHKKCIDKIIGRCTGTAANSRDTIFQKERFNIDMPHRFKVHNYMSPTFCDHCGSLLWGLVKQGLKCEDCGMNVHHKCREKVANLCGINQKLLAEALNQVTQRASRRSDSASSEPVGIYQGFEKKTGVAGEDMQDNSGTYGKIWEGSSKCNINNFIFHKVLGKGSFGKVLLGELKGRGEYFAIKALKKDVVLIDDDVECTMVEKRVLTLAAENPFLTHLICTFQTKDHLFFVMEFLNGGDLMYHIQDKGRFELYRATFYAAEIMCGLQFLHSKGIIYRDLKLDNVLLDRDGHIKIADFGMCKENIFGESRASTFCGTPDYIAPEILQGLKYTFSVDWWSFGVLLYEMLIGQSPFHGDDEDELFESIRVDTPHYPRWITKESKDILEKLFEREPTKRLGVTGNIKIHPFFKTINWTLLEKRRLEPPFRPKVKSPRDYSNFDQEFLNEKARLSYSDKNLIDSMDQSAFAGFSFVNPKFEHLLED
Protocol: as §1
(§2) Microarrays were prepared with 10 wells/slide, wherein the kinases EPHB3, FYN, and PRKCD and their substrate were immobilized in each well.

EPHB3 = EPHB3 (Homo sapiens, UniProt P54753); assay: as above; type: biochemical; settings: different inhibitor concentration in each well; substrate MBP, histone and casein
Chain of EPHB3 (P54753 34-998): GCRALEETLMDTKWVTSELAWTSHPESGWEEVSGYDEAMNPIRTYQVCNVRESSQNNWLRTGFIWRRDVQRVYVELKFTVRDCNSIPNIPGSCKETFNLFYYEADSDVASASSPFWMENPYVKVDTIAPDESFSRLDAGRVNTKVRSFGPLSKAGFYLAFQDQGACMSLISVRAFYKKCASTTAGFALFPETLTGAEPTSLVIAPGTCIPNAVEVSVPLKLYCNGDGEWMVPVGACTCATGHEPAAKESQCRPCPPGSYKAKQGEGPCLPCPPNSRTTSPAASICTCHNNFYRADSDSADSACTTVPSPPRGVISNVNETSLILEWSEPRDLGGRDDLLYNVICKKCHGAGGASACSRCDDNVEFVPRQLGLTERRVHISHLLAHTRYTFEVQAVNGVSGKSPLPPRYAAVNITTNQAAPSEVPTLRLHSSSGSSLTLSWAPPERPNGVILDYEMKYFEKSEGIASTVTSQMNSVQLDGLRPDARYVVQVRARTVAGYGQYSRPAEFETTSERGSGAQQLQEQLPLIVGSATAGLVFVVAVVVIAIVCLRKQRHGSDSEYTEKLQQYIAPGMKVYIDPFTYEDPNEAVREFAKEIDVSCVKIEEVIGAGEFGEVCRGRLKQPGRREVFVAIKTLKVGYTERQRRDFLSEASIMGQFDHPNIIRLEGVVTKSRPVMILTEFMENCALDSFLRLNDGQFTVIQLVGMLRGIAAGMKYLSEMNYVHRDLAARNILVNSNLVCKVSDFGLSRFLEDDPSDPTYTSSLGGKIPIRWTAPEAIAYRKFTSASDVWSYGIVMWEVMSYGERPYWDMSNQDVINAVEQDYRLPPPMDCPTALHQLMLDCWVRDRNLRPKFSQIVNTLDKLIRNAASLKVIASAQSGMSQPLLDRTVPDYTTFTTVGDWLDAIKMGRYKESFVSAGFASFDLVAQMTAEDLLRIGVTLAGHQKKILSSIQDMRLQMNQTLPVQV
Protocol: as §1
Microarrays were prepared with 10 wells/slide, wherein the kinases EPHB3, FYN, and PRKCD and their substrate were immobilized in each well. The slide was coated with substrate essentially as described in Example I. Subsequently, a gasket with 10 openings was applied to the surface of the slide thereby creating 10 wells, i.e., the gasket provides the barriers between the wells. The accession numbers for the different kinases in the NCBI database are: for FYN: NM_002037; for PRKCD: NM_006254; and for EPHB3: NM_004443.

tyrosine kinases = assay: Inhibitor specificity profiling on kinase microarray (fifty kinases, gamma-AT33P); settings: inhibitor 100 μm; substrate mixture of MBP, histone and casein
Protocol: To coat slides with kinase substrate, the substrates are diluted to 10 ng/μL in 1×PBS and 180-200 μL of substrate solution are pipetted onto one slide, e.g., a glass slide, aldehyde treated slides (TeleChem International, Inc.), nitrocellulose-coated slides (Schleicher & Schuell), slides with an amino-silane surface (Corning). A second slide is then placed on top of the first slide so that the sides to be deposited with kinases face each other. Care should be taken that the liquid covers the entire slide and that there are no air bubbles. The slides are placed in a 50 mL conical tube, making sure they are laying flat and incubated at 4° C. for one hour to several days.
Subsequently, approximately 100 mL of PBST are added to the dish. The slides are then washed for one hour at 4° C. with shaking. The PBST is then discarded and the slides are gently rinsed with dH2O using a squirt bottle. After rinsing, the slides are placed into a slide boxes and centrifuged at 4000 rpm for one minute. The slides are then stored at 4° C. until printing with kinase.
1 mL of kinase assay buffer for every 12 glass slides to be probed is prepared. 6 μL of gamma-AT^33P (10 μCi/μL) are added to the assay buffer. The slides are placed in 50 mL conical tubes, laying flat, proteins facing up. 70 μL to 150 μL of the kinase assay buffer with gamma-AT^33P are added onto each slide. […]

FYN [1] = biological target: T1, FYN (Homo sapiens, UniProt P06241); assay: Global specificity profiling experiment, single point inhibition on kinase microarray; type: biochemical; settings: substrates histone, casein, MBP, polyEY
T1 sequence (P06241 whole entry): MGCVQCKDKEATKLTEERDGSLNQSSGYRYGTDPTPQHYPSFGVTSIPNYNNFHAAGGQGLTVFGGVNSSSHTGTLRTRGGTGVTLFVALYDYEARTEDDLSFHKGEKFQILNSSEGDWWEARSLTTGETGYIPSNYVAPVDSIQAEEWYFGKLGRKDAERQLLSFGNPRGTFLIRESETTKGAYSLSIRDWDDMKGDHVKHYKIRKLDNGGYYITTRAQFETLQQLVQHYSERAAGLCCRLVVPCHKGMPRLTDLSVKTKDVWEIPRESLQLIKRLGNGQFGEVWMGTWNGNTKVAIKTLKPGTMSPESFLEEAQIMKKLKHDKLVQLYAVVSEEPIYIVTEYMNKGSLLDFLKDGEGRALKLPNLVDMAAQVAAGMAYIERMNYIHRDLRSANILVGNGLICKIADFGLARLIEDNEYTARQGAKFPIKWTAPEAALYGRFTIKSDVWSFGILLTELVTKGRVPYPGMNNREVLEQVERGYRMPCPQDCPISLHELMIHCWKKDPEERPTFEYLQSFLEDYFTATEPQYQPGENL
Protocol: as §1
A mixture of generic kinase substrates (histone, casein, MBP, and polyEY) was used in the assay. The average of all signals from the same inhibitor or control experiment was calculated.
To expedite data analysis regarding the kinase families that are inhibited by a particular […], a graphical representation can be constructed of inhibition data for substrates in such a manner that phylogenetically related kinases can be spatially arranged on the graphical representation.

FYN [2] = biological target: T1, FYN; assay: Dose-response analysis on 10-well kinase microarray; type: biochemical; settings: different inhibitor concentration in each well; substrate MBP, histone and casein
Protocol: as §1, §2

| inhibition of PRKCD (dose-response) (PRKCD) | inhibition of tyrosine kinases (tyrosine kinases) | Structure (SMILES) | specificity observed in global profiling (percentage-of-inhibition data) (39 kinases (Table 4)) | inhibition of EPHB3 (dose-response) (EPHB3) | inhibition of FYN in global profiling (FYN [1]) | inhibition of FYN (dose-response) (FYN [2]) |
| --- | --- | --- | --- | --- | --- | --- |
|  |  | Cn1cc(C2=C(c3cn(CCCSC(=N)N)c4ccccc34)C(=O)NC2=O)c2ccccc21 [Ro-31-8220] | more specifically targeted the serine-threonine kinases |  |  |  |
| not | strongly inhibited | CC(C)(C)n1nc(-c2ccc(Cl)cc2)c2c(N)ncnc21 [PP2] | primarily inhibited tyrosine kinases | strongly inhibits |  |  |
|  |  | CN[C@@H]1C[C@H]2O[C@@](C)([C@@H]1OC)n1c3ccccc3c3c4c(c5c6ccccc6n2c5c31)C(=O)NC4 [Staurosporine] | broad spectrum of kinases inhibited | not | inhibited | strongly inhibits |
